Test: Dissolution of phenothiazine fixed bed in acetic acid (UV absorption at 390 nm)
Format: physicochemical
Settings: saturation concentration
Source text: The dissolution of phenothiazine in acetic acid according to the process according to the invention was investigated by experiment. FIG. 2 illustrates the relevant experimental setup.
A phenothiazine fixed bed is placed in a temperature-controllable chromatography column (Götec-Labor GmbH, Superformance 300-16, length 300 mm, internal diameter 16 mm, double-walled for thermostatting, 20 μm type F filter frit). Pump P-01 conveys acetic acid from the reservoir vessel through the fixed bed temperature-controlled to 20° C. into a waste vessel. Pump P-02 diverts a sample stream to the UV detector. The phenothiazine concentration is determined by absorption measurement at 390 nm. The detector is previously calibrated with a phenothiazine solution of known concentration.
A first experiment was performed with a flow rate of 12.4 cm/min at a volume flow of 25.0 ml/min. […] The measured detector extinction (dashed) periodically deviates from the concentration at the bed outlet since to protect the measuring cell from solids particles the solution was not passed through the detector upon startup. In the further course of the experiment calibration solutions were passed through the detector as a control. The “corrected bed outlet concentration” (solid curve beginning at a concentration of 0.000) was calculated over the experimental duration via linear interpolation and extrapolation. […]

SMILES: c1ccc2c(c1)Nc1ccccc1S2 [phenothiazine]
- Max conc (phenothiazine) (Experiment 1, fixed bed thermostatted 20.0 °C, flow rate 12.4 cm/min, volume flow 25.0 ml/min): 1.23 % by wt.
- Max conc (phenothiazine) (Experiment 2, fixed bed thermostatted 20.0 °C, flow rate 11.0 cm/min, volume flow 22.2 ml/min): 1.22 % by wt.
